Results taken from patent US11382328B2, “Rapid drug discovery methods for pathogen inactivation” (priority 2019, dated 2022).
Like-named read-outs stand apart in the source and are kept apart here.

Tested on: E. coli strain W3110
Assay: Synergy assays: Biolog chemical sensitivity panels with Group IB metal, coefficient of drug interaction (CDI) from relative growth
Assay type: cell-based
Details: for CDI (coefficient of drug interaction), copper mixed with biocide: Copper (mM) section; for CDI (coefficient of drug interaction), gold + biocide: Gold (μM)
[1] = 1st of 3 copper concentrations (value not shown), 1st of four biocide concentrations
[2] = 1st of 3 copper concentrations (value not shown), 2nd of four biocide concentrations
[3] = 1st of 3 copper concentrations (value not shown), 3rd of four biocide concentrations
[4] = 1st of 3 copper concentrations (value not shown), 4th of four biocide concentrations
[5] = 2nd of 3 copper concentrations (value not shown), 1st of four biocide concentrations
[6] = 2nd of 3 copper concentrations (value not shown), 2nd of four biocide concentrations
[7] = 2nd of 3 copper concentrations (value not shown), 3rd of four biocide concentrations
[8] = 2nd of 3 copper concentrations (value not shown), 4th of four biocide concentrations
[9] = 3rd of 3 copper concentrations (value not shown), 1st of four biocide concentrations
[10] = 3rd of 3 copper concentrations (value not shown), 2nd of four biocide concentrations
[11] = 3rd of 3 copper concentrations (value not shown), 3rd of four biocide concentrations
[12] = 3rd of 3 copper concentrations (value not shown), 4th of four biocide concentrations
[13] = Gold section of Table 5, first of three gold concentrations (μM, value not given), biocide concentration 1 of 4
[14] = Gold section of Table 5, first of three gold concentrations (μM, value not given), biocide concentration 2 of 4
[15] = Gold section of Table 5, first of three gold concentrations (μM, value not given), biocide concentration 3 of 4
[16] = Gold section of Table 5, second of three gold concentrations (μM, value not given), biocide concentration 1 of 4
[17] = Gold section of Table 5, second of three gold concentrations (μM, value not given), biocide concentration 2 of 4
[18] = Gold section of Table 5, second of three gold concentrations (μM, value not given), biocide concentration 3 of 4
[19] = Gold section of Table 5, second of three gold concentrations (μM, value not given), biocide concentration 4 of 4
[20] = Gold section of Table 5, third of three gold concentrations (μM, value not given), biocide concentration 2 of 4
[21] = Gold section of Table 5, third of three gold concentrations (μM, value not given), biocide concentration 3 of 4
[22] = Silver 0.5 μM, biocide concentration 2 of 4
[23] = Silver 0.5 μM, biocide concentration 3 of 4
[24] = Silver 0.5 μM, biocide concentration 4 of 4
[25] = Silver 1.0 μM, biocide concentration 2 of 4
[26] = Silver 1.0 μM, biocide concentration 3 of 4
[27] = Silver 1.0 μM, biocide concentration 4 of 4
[28] = Silver 5.0 μM, biocide concentration 1 of 4
[29] = Silver 5.0 μM, biocide concentration 2 of 4
[30] = Silver 5.0 μM, biocide concentration 3 of 4
[31] = Silver 5.0 μM, biocide concentration 4 of 4
[32] = Gold section of Table 5, first of three gold concentrations (μM, value not given), biocide concentration 4 of 4
[33] = Gold section of Table 5, third of three gold concentrations (μM, value not given), biocide concentration 1 of 4
[34] = Gold section of Table 5, third of three gold concentrations (μM, value not given), biocide concentration 4 of 4
[35] = Silver 0.5 μM, 1st of four biocide concentrations, E. coli
[36] = Silver 0.5 μM, 2nd of four biocide concentrations, E. coli
[37] = Silver 0.5 μM, 3rd of four biocide concentrations, E. coli
[38] = Silver 0.5 μM, 4th of four biocide concentrations, E. coli
[39] = Silver 1.0 μM, 1st of four biocide concentrations, E. coli
[40] = Silver 1.0 μM, 2nd of four biocide concentrations, E. coli
[41] = Silver 1.0 μM, 3rd of four biocide concentrations, E. coli
[42] = Silver 1.0 μM, 4th of four biocide concentrations, E. coli
[43] = Silver 5.0 μM, 3rd of four biocide concentrations, E. coli
[44] = Silver 5.0 μM, 4th of four biocide concentrations, E. coli

gentamicin
CDI (coefficient of drug interaction), copper mixed with biocide [1]: 0.89 | CDI (coefficient of drug interaction), copper mixed with biocide [2]: 0.87 | CDI (coefficient of drug interaction), copper mixed with biocide [3]: 0.79 | CDI (coefficient of drug interaction), copper mixed with biocide [4]: 0.86 | CDI (coefficient of drug interaction), copper mixed with biocide [5]: 0.78 | CDI (coefficient of drug interaction), copper mixed with biocide [6]: 0.80 | CDI (coefficient of drug interaction), copper mixed with biocide [7]: 0.74 | CDI (coefficient of drug interaction), copper mixed with biocide [8]: 1.54 | CDI (coefficient of drug interaction), copper mixed with biocide [9]: 0.61 | CDI (coefficient of drug interaction), copper mixed with biocide [10]: 0.59 | CDI (coefficient of drug interaction), copper mixed with biocide [11]: 0.58 | CDI (coefficient of drug interaction), copper mixed with biocide [12]: 0.61 | CDI (coefficient of drug interaction) [13]: 0.97 | CDI (coefficient of drug interaction) [14]: 1.00 | CDI (coefficient of drug interaction) [15]: 0.99 | CDI (coefficient of drug interaction) [16]: 0.97 | CDI (coefficient of drug interaction) [17]: 0.99 | CDI (coefficient of drug interaction) [18]: 1.00 | CDI (coefficient of drug interaction) [19]: 1.00 | CDI (coefficient of drug interaction) [20]: 0.97 | CDI (coefficient of drug interaction) [21]: 1.00 | CDI (Silver 0.5 μM, biocide concentration 1 of 4): 0.87 | CDI [22]: 0.86 | CDI [23]: 0.81 | CDI [24]: 0.79 | CDI [25]: 0.98 | CDI [26]: 0.42 | CDI [27]: 0.38 | CDI [28]: 1.00 | CDI [29]: 0.82 | CDI [30]: 0.74 | CDI [31]: 0.34

hydroxylamine
CDI (coefficient of drug interaction): 0.99

penimepicycline
CDI (coefficient of drug interaction) (Copper (mM), 1st of 3 copper concentrations (head line not shown), biocide concentration 1 of 4, E. coli): 0.91 | CDI (coefficient of drug interaction) (Copper (mM), 1st of 3 copper concentrations (head line not shown), biocide concentration 2 of 4, E. coli): 1.07 | CDI (coefficient of drug interaction) (Copper (mM), 1st of 3 copper concentrations (head line not shown), biocide concentration 3 of 4, E. coli): Tox | CDI (coefficient of drug interaction) (Copper (mM), 1st of 3 copper concentrations (head line not shown), biocide concentration 4 of 4, E. coli): Tox | CDI (coefficient of drug interaction) (Copper (mM), 2nd of 3 copper concentrations (head line not shown), biocide concentration 1 of 4, E. coli): 0.70 | CDI (coefficient of drug interaction) (Copper (mM), 2nd of 3 copper concentrations (head line not shown), biocide concentration 2 of 4, E. coli): 0.87 | CDI (coefficient of drug interaction) (Copper (mM), 2nd of 3 copper concentrations (head line not shown), biocide concentration 3 of 4, E. coli): Tox | CDI (coefficient of drug interaction) (Copper (mM), 2nd of 3 copper concentrations (head line not shown), biocide concentration 4 of 4, E. coli): Tox | CDI (coefficient of drug interaction) (Copper (mM), 3rd of 3 copper concentrations (head line not shown), biocide concentration 1 of 4, E. coli): 0.51 | CDI (coefficient of drug interaction) (Copper (mM), 3rd of 3 copper concentrations (head line not shown), biocide concentration 2 of 4, E. coli): 0.64 | CDI (coefficient of drug interaction) (Copper (mM), 3rd of 3 copper concentrations (head line not shown), biocide concentration 3 of 4, E. coli): Tox | CDI (coefficient of drug interaction) (Copper (mM), 3rd of 3 copper concentrations (head line not shown), biocide concentration 4 of 4, E. coli): Tox | CDI (coefficient of drug interaction), gold + biocide (first of 3 gold concentrations, biocide concentration 1 of 4): 1.07 | CDI (coefficient of drug interaction), gold + biocide (first of 3 gold concentrations, biocide concentration 2 of 4): 1.12 | CDI (coefficient of drug interaction), gold + biocide (first of 3 gold concentrations, biocide concentration 3 of 4): Tox | CDI (coefficient of drug interaction), gold + biocide (first of 3 gold concentrations, biocide concentration 4 of 4): Tox | CDI (coefficient of drug interaction), gold + biocide (second of 3 gold concentrations, biocide concentration 3 of 4): Tox | CDI (coefficient of drug interaction), gold + biocide (second of 3 gold concentrations, biocide concentration 4 of 4): Tox | CDI (coefficient of drug interaction), gold + biocide (third of 3 gold concentrations, biocide concentration 1 of 4): 0.90 | CDI (coefficient of drug interaction), gold + biocide (third of 3 gold concentrations, biocide concentration 2 of 4): 0.80 | CDI (coefficient of drug interaction), gold + biocide (third of 3 gold concentrations, biocide concentration 3 of 4): Tox | CDI (coefficient of drug interaction), gold + biocide (third of 3 gold concentrations, biocide concentration 4 of 4): Tox | CDI [22]: 1.10 | CDI [23]: Tox | CDI [24]: Tox | CDI (Silver 1.0 μM, biocide concentration 1 of 4): 0.91 | CDI [25]: 0.91 | CDI [26]: Tox | CDI [27]: Tox | CDI [28]: 0.49 | CDI [29]: 0.34 | CDI [30]: Tox | CDI [31]: Tox

phleomycin
CDI (coefficient of drug interaction), copper mixed with biocide [1]: 0.99 | CDI (coefficient of drug interaction), copper mixed with biocide [2]: 1.27 | CDI (coefficient of drug interaction), copper mixed with biocide [3]: Tox | CDI (coefficient of drug interaction), copper mixed with biocide [4]: Tox | CDI (coefficient of drug interaction), copper mixed with biocide [5]: 1.09 | CDI (coefficient of drug interaction), copper mixed with biocide [6]: 1.19 | CDI (coefficient of drug interaction), copper mixed with biocide [7]: Tox | CDI (coefficient of drug interaction), copper mixed with biocide [8]: Tox | CDI (coefficient of drug interaction), copper mixed with biocide [9]: 0.99 | CDI (coefficient of drug interaction), copper mixed with biocide [10]: 0.96 | CDI (coefficient of drug interaction), copper mixed with biocide [11]: Tox | CDI (coefficient of drug interaction), copper mixed with biocide [12]: Tox | CDI (coefficient of drug interaction) [13]: 0.98 | CDI (coefficient of drug interaction) [14]: 1.06 | CDI (coefficient of drug interaction) [32]: 1.33 | CDI (coefficient of drug interaction) [17]: 1.03 | CDI (coefficient of drug interaction) [18]: 0.88 | CDI (coefficient of drug interaction) [19]: 0.87 | CDI (coefficient of drug interaction) [33]: 0.99 | CDI (coefficient of drug interaction) [20]: 0.96 | CDI (coefficient of drug interaction) [21]: 0.92 | CDI (coefficient of drug interaction) [34]: 1.29 | CDI (coefficient of drug interaction), silver + biocide [35]: 0.81 | CDI (coefficient of drug interaction), silver + biocide [36]: 0.61 | CDI (coefficient of drug interaction), silver + biocide [37]: 0.68 | CDI (coefficient of drug interaction), silver + biocide [38]: Tox | CDI (coefficient of drug interaction), silver + biocide [39]: 0.89 | CDI (coefficient of drug interaction), silver + biocide [40]: 0.81 | CDI (coefficient of drug interaction), silver + biocide [41]: 0.81 | CDI (coefficient of drug interaction), silver + biocide [42]: Tox | CDI (coefficient of drug interaction), silver + biocide (Silver 5.0 μM, 1st of four biocide concentrations, E. coli): 1.32 | CDI (coefficient of drug interaction), silver + biocide (Silver 5.0 μM, 2nd of four biocide concentrations, E. coli): 1.43 | CDI (coefficient of drug interaction), silver + biocide [43]: 1.37 | CDI (coefficient of drug interaction), silver + biocide [44]: Tox

poly-L-lysine
CDI (coefficient of drug interaction), copper mixed with biocide [1]: 1.15 | CDI (coefficient of drug interaction), copper mixed with biocide [2]: 0.95 | CDI (coefficient of drug interaction), copper mixed with biocide [3]: Tox | CDI (coefficient of drug interaction), copper mixed with biocide [4]: Tox | CDI (coefficient of drug interaction), copper mixed with biocide [5]: 1.03 | CDI (coefficient of drug interaction), copper mixed with biocide [6]: 0.96 | CDI (coefficient of drug interaction), copper mixed with biocide [7]: Tox | CDI (coefficient of drug interaction), copper mixed with biocide [8]: Tox | CDI (coefficient of drug interaction), copper mixed with biocide [10]: 0.59 | CDI (coefficient of drug interaction), copper mixed with biocide [11]: Tox | CDI (coefficient of drug interaction), copper mixed with biocide [12]: Tox | CDI (coefficient of drug interaction) [13]: 1.07 | CDI (coefficient of drug interaction) [14]: 0.98 | CDI (coefficient of drug interaction) [15]: Tox | CDI (coefficient of drug interaction) [32]: Tox | CDI (coefficient of drug interaction) [16]: 1.08 | CDI (coefficient of drug interaction) [17]: 1.06 | CDI (coefficient of drug interaction) [18]: Tox | CDI (coefficient of drug interaction) [19]: Tox | CDI (coefficient of drug interaction) [33]: 0.93 | CDI (coefficient of drug interaction) [20]: 0.88 | CDI (coefficient of drug interaction) [21]: Tox | CDI (coefficient of drug interaction) [34]: Tox | CDI (coefficient of drug interaction), silver + biocide [35]: 0.92 | CDI (coefficient of drug interaction), silver + biocide [36]: 0.96 | CDI (coefficient of drug interaction), silver + biocide [37]: Tox | CDI (coefficient of drug interaction), silver + biocide [38]: Tox | CDI (coefficient of drug interaction), silver + biocide [39]: 0.88 | CDI (coefficient of drug interaction), silver + biocide [40]: 0.88 | CDI (coefficient of drug interaction), silver + biocide [41]: Tox | CDI (coefficient of drug interaction), silver + biocide [42]: Tox | CDI (coefficient of drug interaction), silver + biocide [43]: Tox | CDI (coefficient of drug interaction), silver + biocide [44]: Tox
